Test results as given in patent publication US11896593B2, “Sulfamate derivative compounds for use in treating or alleviating a psychiatric disorder” (Bio-Pharm Solutions Co., Ltd., priority 2020, dated 2024).

Tested on: ICR male mice
Assay: Forced swim test (mouse, mFST)
Assay type: in vivo
Conditions: po, mouse forced swim test, 1 hr, read-out: mFST protection % at administration dose
Experimental: In order to determine the anti-depressant effect in rodents, the forced swim test was performed with rats and mice. The forced swim test causes an immobile state by forcing an animal to swim in a confined space. It reflects a state of despair giving up evading such a circumstance. ICR male mice (25 g to 30 g) and Wistar male rats (240 g to 260 g) were purchased from Samtako Bio Korea Co. (Korea) and allowed to acclimatize for 1 week before being tested in a controlled animal facility (temperature 22±2° C., humidity 55±5%). The test compound was dissolved in 20% Tween80 and administered orally 60 minutes before testing. The control group was provided with a corresponding vehicle. […] 15 minutes of forced swimming was performed a day before the experiment. On the day of the experiment, the animal was placed in the cylinder 60 minutes after the administration of the compound and was videotaped for 6 minutes. In the recorded videos, time during which the animal placed its head on the water and remained still without movement was measured based on the remaining 4 minutes excluding the first 2 minutes. It was evaluated that the lower the value of the immobile posture time, the greater the anti-depressant action (Reference; Porsolt R D, Le Pichon M. Jalfre M. 1997. Depression: a new animal model sensitive to antidepressant treatments. Nature. April 21; 266(5604):730-2.).
The result was shown as the standard error of measurement (SEM) of mean value t mean value. Behavioral data were analyzed by one-way ANOVA. For statistical significance, a value of <0.05 was taken (***p<0.001, **p=0.001˜0.01, *p=0.01˜0.05). Data management and statistics were performed using the Prism software of Windows version 4 (GraphPad Softward Co., San Diego, CA, USA).
Based on the results of Table 7, the ED50 value of the compound of Example 2 was calculated and shown in Table 7, and after 30 mg/kg and 60 mg/kg of the compounds of the other remaining examples were administered based on TD50 values to perform the forced swim tests, respectively, the administration doses with protected efficacy and protection % at the corresponding administration doses were shown in Table 7.

Row | SMILES | inhibition in vivo at 60 mg/kg [%] | inhibition in vivo at 30 mg/kg [%]
1 | NS(=O)(=O)OC[C@@H]1OC2(CCCC2)O[C@H]1c1ccccc1Cl [Example 10, ((2S,3S)-3-(2-chlorophenyl)-1,4-dioxaspiro[4,4]nonan-2-yl)methyl sulfamate] | 19 | 
2 | CC1(C)O[C@@H](COS(N)(=O)=O)[C@H](c2ccc(Cl)cc2Cl)O1 [Example 40, ((4S,5S)-5-(2,4-dichlorophenyl)-2,2-dimethyl-1,3-dioxolan-4-yl)methyl sulfamate] |  | 64.2
3 | NS(=O)(=O)OC[C@H]1OC2(CCCC2)O[C@@H]1c1c(Cl)cccc1Cl [Example 57, ((2R,3R)-3-(2,6-dichlorophenyl)-1,4-dioxaspiro[4,4]nonan-2-yl)methyl sulfamate] |  | 61.6
4 | Nc1ccccc1[C@@H]1OC2(CCCC2)O[C@H]1COS(N)(=O)=O [Example 72, ((2S,3S)-3-(2-aminophenyl)-1,4-dioxaspiro[4,4]nonan-2-yl)methyl sulfamate] | 54.3 | 
5 | NS(=O)(=O)OC[C@@H]1OC(=O)O[C@H]1c1ccccc1[N+](=O)[O-] [Example 90, ((4S,5S)-5-(2-nitrophenyl)-2-oxo-1,3-dioxolan-4-yl)methyl sulfamate] | 60.4 | 
6 | Cc1ccccc1[C@@H]1OC(C)(C)O[C@H]1COS(N)(=O)=O [Example 92, ((4S,5S)-5-(2-methylphenyl)-2,2-dimethyl-1,3-dioxolan-4-yl)methyl sulfamate] |  | 47
7 | CC1(C)O[C@@H](COS(N)(=O)=O)[C@H](c2ccccc2)O1 [Example 106, ((4S,5S)-5-phenyl-2,2-dimethyl-1,3-dioxolan-4-yl)methyl sulfamate] | 24.5 | 
8 | NS(=O)(=O)OC[C@@H]1OC2(CCCC2)O[C@H]1c1ccccc1 [Example 110, ((2S,3S)-3-phenyl-1,4-dioxaspiro[4,4]nonan-2-yl)methyl sulfamate] | 39.3 | 
9 | CC1(C)O[C@@H](CCOS(N)(=O)=O)[C@H](Cc2ccccc2)O1 [Example 114, 2-((4S,5S)-5-benzyl-2,2-dimethyl-1,3-dioxolan-4-yl)ethyl sulfamate] | 36.4 | 
10 | NS(=O)(=O)OCC[C@@H]1OC2(CCCC2)O[C@H]1Cc1ccccc1 [Example 118, 2-((2S,3S)-3-benzyl-1,4-dioxaspiro[4,4]nonan-2-yl)ethyl sulfamate] | 35.3 | 
11 | CC1(C)O[C@@H](COS(N)(=O)=O)[C@H](Cc2ccccc2)O1 [Example 122, ((4S,5S)-5-benzyl-2,2-dimethyl-1,3-dioxolan-4-yl)methyl sulfamate] |  | 46.9
12 | NS(=O)(=O)OC[C@@H]1OC2(CCCC2)O[C@H]1Cc1ccccc1 [Example 126, ((2S,3S)-3-benzyl-1,4-dioxaspiro[4,4]nonan-2-yl)methyl sulfamate] | 43 | 
13 | CC1(C)O[C@@H](CCOS(N)(=O)=O)[C@H](c2ccccc2)O1 [Example 130, 2-((4S,5S)-5-phenyl-2,2-dimethyl-1,3-dioxolan-4-yl)ethyl sulfamate] |  | 57.5
14 | NS(=O)(=O)OCC[C@@H]1OC2(CCCC2)O[C@H]1c1ccccc1 [Example 134, 2-((2S,3S)-3-phenyl-1,4-dioxaspiro[4,4]nonan-2-yl)ethyl sulfamate] |  | 63
15 | CC1(C)O[C@@H](CCOS(N)(=O)=O)[C@H](Cc2ccccc2Cl)O1 [Example 138, 2-((4S,5S)-5-(2-chlorobenzyll)-2,2-dimethyl-1,3-dioxolan-4-yl)ethyl sulfamate] | 60.2 | 
16 | NS(=O)(=O)OCC[C@@H]1OC2(CCCC2)O[C@H]1Cc1ccccc1Cl [Example 142, 2-((2S,3S)-3-(2-chlorobenzyl)-1,4-dioxaspiro[4,4]nonan-2-yl)ethyl sulfamate] | 45.9 | 
17 | CC1(C)O[C@@H](COS(N)(=O)=O)[C@H](Cc2ccccc2Cl)O1 [Example 146, ((4S,5S)-5-(2-chlorobenzyl)-2,2-dimethyl-1,3-dioxolan-4-yl)methyl sulfamate] | 65.1 | 
18 | NS(=O)(=O)OC[C@@H]1OC2(CCCC2)O[C@H]1Cc1ccccc1Cl [Example 150, ((2S,3S)-3-(2-chlorobenzyl)-1,4-dioxaspiro[4,4]nonan-2-yl)methyl sulfamate] | 56.9 | 
19 | CC1(C)O[C@@H](CCOS(N)(=O)=O)[C@H](c2ccccc2Cl)O1 [Example 154, 2-((4S,5S)-5-(2-chlorophenyl)-2,2-dimethyl-1,3-dioxolan-4-yl)ethyl sulfamate] | 38.9 | 
20 | NS(=O)(=O)OCC[C@@H]1OC2(CCCC2)O[C@H]1c1ccccc1Cl [Example 158, 2-((2S,3S)-3-(2-chlorophenyl)-1,4-dioxaspiro[4,4]nonan-2-yl)ethyl sulfamate] |  | 51.6
21 | CC1(C)O[C@@H](COS(N)(=O)=O)[C@H](c2sc(Cl)nc2Cl)O1 [Example 164, ((4S,5R)-5-(2,4-dichlorothiazol-5-yl)-2,2-dimethyl-1,3-dioxolan-4-yl)methyl sulfamate] | 44.9 | 
22 | CC1(C)O[C@@H](COS(N)(=O)=O)[C@H](c2cnc(Cl)s2)O1 [Example 166, ((4R,5S)-5-(2-chlorothiazol-5-yl)-2,2-dimethyl-1,3-dioxolan-4-yl)methyl-sulfamate] | 53.3 | 
